In US9394263B2, “Substituted hetero-azepinones” (priority 2012, dated 2016):
Structures can show the parent of a compound that is named as a salt. Where two headings read alike, the source gives them in different places.

Legend:
BIR2 domain of XIAP = BIR2 domain of XIAP (Homo sapiens (Human), UniProt P98170, C202A/C213G); assay: TR-FRET assay for BIR2: inhibition of binding of XIAP BIR2 domain to Peptide A (SMAC-derived peptide);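 further: percent inhibition measured across a concentration series of each compound, from which the IC50 was derived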
Protocol: TR-FRET Assay for BIR2 and BIR3
The peptides were labeled with the fluorescent tags FITC or TAMRA and Kd values were determined by fluorescence polarization assay.
The peptide sequence was derivatized with biotin to provide [sequence]-(8-biotin)-OH 1:2 TFA as the substrate for the TR-FRET assay.
The XIAP protein sequence was obtained from the SWISS-PROT protein sequence database and the BIR2 and BIR3 domains were derived from that.
Percentage of inhibition at each concentration was determined to generate an IC50 value for each test compound.

BIR3 domain of XIAP = BIR3 domain of XIAP (Homo sapiens (Human), UniProt P98170); assay: TR-FRET assay for BIR3: inhibition of binding of XIAP BIR3 domain to Peptide A (SMAC-derived peptide)
Chain of BIR3 domain of XIAP (P98170 241-356 with tags or gaps limits assumed): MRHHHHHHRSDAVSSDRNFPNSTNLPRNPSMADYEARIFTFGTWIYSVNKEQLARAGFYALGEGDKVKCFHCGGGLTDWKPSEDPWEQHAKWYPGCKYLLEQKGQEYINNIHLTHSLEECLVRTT

Chain of BIR2 domain of XIAP (P98170 other isoform, or with tags, fused parts or gaps, stated change not applied): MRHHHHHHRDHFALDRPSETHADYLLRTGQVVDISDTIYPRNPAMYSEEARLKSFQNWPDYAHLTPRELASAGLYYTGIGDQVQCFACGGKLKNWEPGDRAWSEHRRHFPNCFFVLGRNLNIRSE

CN[C@@H](C)C(=O)N[C@H]1C(=O)N(Cc2c(OC)ccc3cc(Br)ccc23)c2ccccc2OC12CCOCC2 [Example 1f]
IC50 (BIR2 domain of XIAP): 4.36 µM

CN[C@@H](C)C(=O)N[C@@H]1C(=O)N(Cc2c(OC)ccc3cc(Br)ccc23)c2ccccc2OC12CCOCC2 [Example 1g]
IC50 (BIR2 domain of XIAP): 0.065 µM

CN[C@@H](C)C(=O)N[C@@H]1C(=O)N(Cc2c(OC)cnc3ccccc23)c2ccccc2OC12CCOCC2 [Example 1r]
IC50 (BIR2 domain of XIAP): 0.141 µM

CC[C@H](NC)C(=O)N[C@@H]1C(=O)N(Cc2c(OC)ccc3cc(Br)ccc23)c2ccc(F)cc2OC12CCOCC2 [Example 16, (2S)-N-(5-((6-Bromo-2-methoxynaphthalen-1-yl)methyl)-(3S)-8-fluoro-4-oxo-2′,3′,5′,6′-tetrahydro-3H-spiro[benzo[b][1,4]oxazepine-2,4′-pyran]-3-yl)-2-(methylamino)butanamide hydrochloride]
IC50 (BIR3 domain of XIAP; read-out: BIR3 IC50): > 50 µM

[2H]C([2H])([2H])N[C@@H](C)C(=O)N[C@@H]1C(=O)N(Cc2c(OC)ccc3cc(Br)ccc23)c2ccccc2OC12CCOCC2 [Example 19, (2S)-N-(5-((6-Bromo-2-methoxynaphthalen-1-yl)methyl)-(3S)-4-oxo-2′,3′,5′,6′-tetrahydro-3H-spiro[benzo[b][1,4]oxazepine-2,4′-pyran]-3-yl)-2-(methyl-d3-amino)propanamide hydrochloride]
IC50 (BIR3 domain of XIAP): 22.9 µM

CN[C@@H](C)C(=O)N[C@H]1CSc2c(NC(=O)COCCOC)cccc2N(Cc2cccc3ccccc23)C1=O [Example 22, (S)-N-{(R)-9-[2-(2-Methoxy-ethoxy)-acetylamino]-5-naphthalen-1-ylmethyl-4-oxo-2,3,4,5-tetrahydro-benzo[b][1,4]thiazepin-3-yl}-2-methylamino-propionamide hydrochloride]
IC50 (BIR3 domain of XIAP; read-out: BIR3 IC50): > 54.8 µM

CN[C@@H](C)C(=O)N[C@H]1CSc2c(NC(=O)C3CCN(C(C)=O)CC3)cccc2N(Cc2cccc3ccccc23)C1=O [Example 23, 1-Acetyl-piperidine-4-carboxylic acid [(R)-3-((S)-2-methylamino-propionylamino)-5-naphthalen-1-ylmethyl-4-oxo-2,3,4,5-tetrahydro-benzo[b][1,4]thiazepin-9-yl]-amide]
IC50 (BIR2 domain of XIAP): 0.373 µM | IC50 (BIR3 domain of XIAP): > 54.8 µM

CN[C@@H](C)C(=O)N[C@H]1COc2ccccc2N(Cc2c(OC)ccc3ccccc23)C1=O [Example 29b]
IC50 (BIR2 domain of XIAP; read-out: BIR2 IC50): 0.198 µM

CN[C@@H](C)C(=O)N[C@H]1COc2ccccc2N(Cc2c(OC)ccc3cc(C(=O)OC)ccc23)C1=O [Example 31, Methyl 6-methoxy-5-(((S)-3-((S)-2-(methylamino)propanamido)-4-oxo-3,4-dihydrobenzo[b][1,4]oxazepin-5(2H)-yl)methyl)-2-naphthoate trifluoroacetate]
IC50 (BIR2 domain of XIAP; read-out: BIR2 IC50): 0.189 µM

CN[C@@H](C)C(=O)N[C@H]1COc2ccccc2N(Cc2c(OC)ccc3cc(C(=O)O)ccc23)C1=O [Example 32, 6-Methoxy-5-(((S)-3-((S)-2-(methylamino)propanamido)-4-oxo-3,4-dihydrobenzo[b][1,4]oxazepin-5(2H)-yl)methyl)-2-naphthoic acid trifluoroacetate]
IC50 (BIR2 domain of XIAP; read-out: BIR2 IC50): 0.055 µM

CN[C@@H](C)C(=O)N[C@@H]1C(=O)N(Cc2c(OC)ccc3cc(Br)ccc23)c2ccc(C)cc2O[C@H]1C [Example 39, (S)-N-((2S,3S)-5-((6-Bromo-2-methoxynaphthalen-1-yl)methyl)-2,8-dimethyl-4-oxo-2,3,4,5-tetrahydrobenzo[b][1,4]oxazepin-3-yl)-2-(methylamino)propanamide trifluoroacetate]
IC50 (BIR2 domain of XIAP; read-out: BIR2 IC50): 0.054 µM

CN[C@@H](C)C(=O)N[C@H]1COc2ccc(C(F)(F)F)cc2N(Cc2c(OC)ccc3cc(Br)ccc23)C1=O [Example 42, (S)-N-((S)-5-((6-Bromo-2-methoxynaphthalen-1-yl)methyl)-4-oxo-7-(trifluoromethyl)-2,3,4,5-tetrahydrobenzo[b][1,4]oxazepin-3-yl)-2-(methylamino)propanamide trifluoroacetate]
IC50 (BIR2 domain of XIAP; read-out: BIR2 IC50): 0.057 µM

CN[C@@H](C)C(=O)N[C@@H]1C(=O)N(Cc2c(OC)ccc3cc(Br)ccc23)c2cc(C(F)(F)F)ccc2O[C@H]1C [Example 43, (S)-N-[(6S,7S)-9-(6-Bromo-2-methoxy-naphthalen-1-ylmethyl)-6-methyl-8-oxo-2-trifluoromethyl-6,7,8,9-tetrahydro-5-oxa-9-aza-benzocyclohepten-7-yl]-2-methylamino-propionamide trifluoroacetate]
IC50 (BIR2 domain of XIAP; read-out: BIR2 IC50): 0.092 µM

CN[C@@H](C)C(=O)N[C@H]1COc2ccccc2N(Cc2cccc(Cl)c2)C1=O [Example 46, (S)-N-((S)-5-(3-Chlorobenzyl)-4-oxo-2,3,4,5-tetrahydrobenzo[13,][1,4]oxazepin-3-yl)-2-(methylamino)propanamide]
IC50 (BIR2 domain of XIAP; read-out: BIR2 IC50): 3.11 µM

CN[C@@H](C)C(=O)N[C@H]1COc2c(C(=O)O)cccc2N(Cc2c(OC)ccc3cc(Br)ccc23)C1=O [Example 48, (S)-5-((6-bromo-2-methoxynaphthalen-1-yl)methyl)-3-((S)-2-(methylamino)propanamido)-4-oxo-2,3,4,5-tetrahydrobenzo[b][1,4]oxazepine-9-carboxylic acid trifluoroacetate]
IC50 (BIR2 domain of XIAP; read-out: BIR2 IC50): 0.089 µM

CN[C@@H](C)C(=O)N[C@H]1COc2c(C(=O)NCCC(=O)O)cccc2N(Cc2c(OC)ccc3cc(Br)ccc23)C1=O [Example 50, 3-{[(S)-9-(6-Bromo-2-methoxy-naphthalen-1-ylmethyl)-74S)-2-methylamino-propionylamino)-8-oxo-6,7,8,9-tetrahydro-5-oxa-9-aza-benzocycloheptene-4-carbonyl]-amino}-propionic acid trifluoroacetate]
IC50 (BIR2 domain of XIAP; read-out: BIR2 IC50): 0.134 µM

CN[C@@H](C)C(=O)N[C@H]1COc2c(C(=O)NCc3ccc(C(=O)OC)cc3)cccc2N(Cc2c(OC)ccc3cc(Br)ccc23)C1=O [Example 51, 4-({[(S)-9-(6-Bromo-2-methoxy-naphthalen-1-ylmethyl)-7-((S)-2-methylamino-propionylamino)-8-oxo-6,7,8,9-tetrahydro-5-oxa-9-aza-benzocycloheptene-4-carbonyl]-amino}-methyl)-benzoic acid methyl ester]
IC50 (BIR2 domain of XIAP; read-out: BIR2 IC50): 0.41 µM

CN[C@@H](C)C(=O)N[C@H]1COc2c(C(=O)O)cccc2N(Cc2c(OC)ccc3cc(C(=O)O)ccc23)C1=O [Example 52, (S)-5-((6-Carboxy-2-methoxynaphthalen-1-yl)methyl)-3-((S)-2-(methylamino)propanamido)-4-oxo-2,3,4,5-tetrahydrobenzo[b][1,4]oxazepine-9-carboxylic acid trifluoroacetate]
IC50 (BIR2 domain of XIAP; read-out: BIR2 IC50): 0.059 µM

CN[C@@H](C)C(=O)N[C@H]1COc2c(C(=O)O)cccc2N(Cc2ccc(Br)c3ccccc23)C1=O [Example 54, (S)-5-((4-Bromonaphthalen-1-yl)methyl)-3-((S)-2-(methylamino)propanamido)-4-oxo-2,3,4,5-tetrahydrobenzo[b][1,4]oxazepine-9-carboxylic acid trifluoroacetate]
IC50 (BIR2 domain of XIAP; read-out: BIR2 IC50): 0.649 µM

CN[C@@H](C)C(=O)N[C@H]1COc2c(C(=O)N3CCN(CCO)CC3)cccc2N(Cc2ccc(Br)c3ccccc23)C1=O [Example 55, (S)-N-((S)-5-((4-Bromonaphthalen-1-yl)methyl)-9-(4-(2-hydroxyethyl)piperazine-1-carbonyl)-4-oxo-2,3,4,5-tetrahydrobenzo[b][1,4]oxazepin-3-yl)-2-(methylamino)propanamide]
IC50 (BIR2 domain of XIAP; read-out: BIR2 IC50): 0.957 µM

CN[C@@H](C)C(=O)N[C@H]1COc2c(C(=O)N3CCN(CCCO)CC3)cccc2N(Cc2ccc(Br)c3ccccc23)C1=O [Example 56, (S)-N-((S)-5-((4-Bromonaphthalen-1-yl)methyl)-9-(4-(3-hydroxypropyl)piperazine-1-carbonyl)-4-oxo-2,3,4,5-tetrahydrobenzo[b][1,4]oxazepin-3-yl)-2-(methylamino)propanamide]
IC50 (BIR2 domain of XIAP; read-out: BIR2 IC50): 1.6 µM

CN[C@@H](C)C(=O)N[C@H]1COc2ccccc2N(Cc2cc(=O)n(C)c3ccc(F)cc23)C1=O [Example 61, (S)-N-((S)-5-((6-Fluoro-1-methyl-2-oxo-1,2-dihydroquinolin-4-yl)methyl)-4-oxo-2,3,4,5-tetrahydrobenzo[b][1,4]oxazepin-3-yl)-2-(methylamino)propanamide]
IC50 (BIR2 domain of XIAP; read-out: BIR2 IC50): 0.686 µM

CN[C@@H](C)C(=O)N[C@H]1COc2ccccc2N(Cc2nn(-c3ccccc3C#N)c3cc(Br)ccc23)C1=O [Example 72, (S)-N-((S)-5-((6-Bromo-1-(2-cyanophenyl)-1H-indazol-3-yl)methyl)-4-oxo-2,3,4,5-tetrahydrobenzo[b][1,4]oxazepin-3-yl)-2-(methylamino)propanamide trifluoroacetate]
IC50 (BIR2 domain of XIAP; read-out: BIR2 IC50): 0.281 µM | IC50 (BIR3 domain of XIAP; read-out: BIR3 IC50): > 54.8 µM

CCN[C@@H](C)C(=O)N[C@@H]1C(=O)N(Cc2nn(-c3ccccc3C#N)c3ccccc23)c2ccccc2O[C@H]1C [Example 74, (2S)-N-((2S,3S)-5-((1-(2-Cyanophenyl)-1H-indazol-3-yl)methyl)-2-methyl-4-oxo-2,3,4,5-tetrahydrobenzo[b][1,4]oxazepin-3-yl)-2-(ethylamino)propanamide trifluoroacetate]
IC50 (BIR2 domain of XIAP; read-out: BIR2 IC50): 0.146 µM | IC50 (BIR3 domain of XIAP; read-out: BIR3 IC50): > 54.8 µM

CN[C@@H](C)C(=O)N[C@@H]1C(=O)N(Cc2nn(-c3ccc(C(=O)O)cc3C#N)c3ccccc23)c2ccccc2O[C@H]1C [Example 80, 3-Cyano-4-(3-(((2S,3S)-2-methyl-3-((S)-2-(methylamino)propanamido)-4-oxo-3,4-dihydrobenzo[b][1,4]oxazepin-5(2H)-yl)methyl)-1H-indazol-1-yl)benzoic acid trifluoroacetate]
IC50 (BIR2 domain of XIAP): 0.118 µM

CC[C@H](NCCO)C(=O)N[C@H]1COc2ccccc2N(Cc2c(OC)ccc3cc(Br)ccc23)C1=O [Example 83, (S)-N-((S)-5-((6-Bromo-2-methoxynaphthalen-1-yl)methyl)-4-oxo-2,3,4,5-tetrahydrobenzo[b][1,4]oxazepin-3-yl)-2-(2-hydroxyethylamino)butanamide trifluoroacetate]
IC50 (BIR2 domain of XIAP; read-out: BIR2 IC50): 0.044 µM

CN[C@@H](C)C(=O)N[C@H]1COc2c(cccc2C(F)(F)F)N(Cc2noc3ccccc23)C1=O [Example 90, (S)-N-((S)-5-(Benzo[d]isoxazol-3-ylmethyl)-4-oxo-9-(trifluoromethyl)-2,3,4,5-tetrahydrobenzo[b][1,4]oxazepin-3-yl)-2-(methylamino)propanamide hydrochloride]
IC50 (BIR2 domain of XIAP; read-out: BIR2 IC50): 0.49 µM
